Entries after “also recorded” stand apart in the source; their conditions may differ.
Assays:
[1] = test system: BxPC-3 derived xenograft tumors; test: BxPC-3 xenograft PD, western blot; assay type: in vivo, mice; conditions: MM-141 30 mpk i.p. Day 0, 3, 6 co-administered with gemcitabine 150 mpk
Source text: For the PD studies described in FIGS. 6A-B and FIGS. 9 A-B, nu/nu female mice were inoculated with 8×10^6 DU145 or 5×10^6 BxPC-3 cells, respectively, in 1:1 Matrigel® suspension. […] Tumor lysates were generated and subjected to western blot analysis.

[2] = test system: CFPAC-1 pancreatic cancer cells; test: Receptor ubiquitination, immunoprecipitation and immunoblotting; assay type: cell-based, human; conditions: 500 nM MM-141 20 minutes after 2 hours 1 μM epoxomicin
Source text: Cell lysates were immunoprecipitated (IP) with an IGF-1R (FIG. 33C) or ErbB3 (FIG. 33D) antibody, and then immunoblotted (IB) for IGF-1R, ErbB3, or ubiquitin protein (Ub) expression by western blotting.

[3] = test system: BxPC-3 (KRAS wild type) pancreatic cancer cells; test: CTG cell viability, gemcitabine or paclitaxel with IGF-1 and HRG, two-dimensional cultures; assay type: cell-based, human; conditions: IGF-1 50 nM and HRG 10 nM, 2% serum, MM-141 500 nM
Protocol: The cell viability assay (FIGS. 7A-B and 8A-B) was carried out using a CellTiter-Glo® (CTG) assay (Promega), which determines the number of viable cells in a culture based on quantitation of the ATP present. In FIGS. 7A-B, BxPC-3 cells were grown in low serum alone or with exogenous IGF-1 or HRG added (0-50 nM). […] For the cell viability assays described in FIGS. 8(A-B), (FIG. 8A) BxPC-3 and (FIG. 8B) CFPAC-1 cells were cultured in low (2%) serum alone or with a combination of IGF-1 (50 nM) and HRG (10 nM).

[4] = test system: BxPC-3 cell line xenografts; test: BxPC-3 xenograft efficacy study; assay type: in vivo, mice
Protocol: For the efficacy studies (FIGS. 6C and 9C), nu/nu female mice were inoculated with 8×10^6 DU145 cells and 5×10^6 BxPC-3 cells, respectively. […] Tumor volume was measured weekly as described in Example 4.

[5] = test system: patients with solid tumors; test: Phase 1 dose escalation study, MM-141 monotherapy (Arm A): safety and disease response; assay type: in vivo, human
Source text: Adverse events that were reported with a frequency>15% included: vomiting (7/15), nausea (6/15), fatigue (4/15), abdominal pain (4/15), increased AP (4/15), dyspnea (4/15), diarrhea (3/15), anemia (3/15), increased AST (3/15), and rash (3/15). […] The safety, tolerability, PK and PD profiles support weekly and biweekly MM-141 dosing.

[6] = test system: ovarian cancer cells; test: Ovarian cancer cell western blot, AKT and ERK signaling; assay type: cell-based; conditions: MM-141 1 μM 1 hour, then IGF-1 50 nM or HRG 10 nM 10 minutes
Protocol: In FIGS. 18A-F, Peol, Peo4, Ov90, PEA1, PEA2 and OvCAR8 ovarian cancer cells were plated on 10 cm plates (1-3×10^6 cells per plate) in 10% serum-containing medium and incubated overnight. […] Following treatment, cells were harvested in lysis buffer containing protease and phosphatase inhibitors and analyzed by western blotting. Phosphorylated and total levels of IGF-1R, ErbB3, AKT and ERK were determined using target-specific antibodies.

[7] = test system: ovarian cancer cell lines (PEA1, PEA2, OvCAR8); test: Growth-factor-induced proliferation, 3D in vitro assays (CTG); assay type: cell-based
[8] = test system: BxPC-3 (KRas wild-type) pancreatic cancer cells; test: pAKT western blot, GSK-1120212 and MM-141; assay type: cell-based, human; conditions: 24 h
Protocol: Following treatment, cells were harvested in cell lysis buffer and western blotting was performed and quantified for pAKT (Serine 473).

[9] = test system: CFPAC-1 pancreatic cancer cells; test: CellTiter-Glo viability in three-dimensional nano-culture plates; assay type: cell-based, human
Protocol: CFPAC-1 pancreatic cancer cells were seeded in 10% serum-containing medium and incubated in 96-well three-dimensional nano-culture plates overnight. […] Cell viability was measured 96 hours post-treatment using CellTiter-Glo® (Promega).

[10] = test system: HepG2 hepatocellular carcinoma cells; test: HepG2 western blot, sorafenib with or without MM-141; assay type: cell-based; conditions: MM-141 500 nM added to sorafenib 5 μM, 2 hours
Protocol: HepG2 cells were plated on 12 well dishes (3×10^5 cells per well) in 10% serum-containing media and incubated overnight. […] Following treatment, cells were harvested in lysis buffer containing protease and phosphatase inhibitors and analyzed by western blotting.

[11] = test system: panel of pancreatic cancer cell lines; test: pAKT ELISA after HRG and IGF-1 stimulation; assay type: cell-based, human; conditions: MM-141 500 nM 24 hours, HRG and IGF-1 100 ng/mL 15 minutes, ten cell lines
Protocol: Ten pancreatic cancer cell lines (see Table 3 above) were seeded at 65% confluence in 10% serum-containing medium and incubated in 96-well plates overnight. […] Following incubation, cells were treated with a combination of HRG and IGF-1 ligands at 100 ng/mL or PBS (control) for 15 minutes. After treatment, cells were harvested and protein lysates generated. Changes in pAKT levels across all treatments and cell lines were evaluated by pAKT ELISA. Phosphorylated AKT signal from untreated control was subtracted from each treatment, and then pAKT levels post-treatment with HRG and IGF-1 were normalized to 1 for each cell line.

[12] = test system: platinum-sensitive (Peol, PEA1 and OvCAR5) and platinum-resistant (Peo4 and PEA2) ovarian cancer cells; test: CTG cell viability, paclitaxel with IGF-1 or HRG, three-dimensional ovarian cultures; assay type: cell-based; conditions: paclitaxel 10-100 nM, IGF-1 or HRG 0-50 nM, MM-141 1 μM, 2% serum
Protocol: The cell viability assay (FIGS. 17A-B) was carried out using a CellTiter-Glo® (CTG) assay (Promega), which determines the number of viable cells in a culture based on quantitation of the ATP present. In FIGS. 17A-B, Peol, Peo4, PEA1, PEA2 and OvCAR5 cells were grown in 2% serum alone or with exogenous IGF-1 or HRG added (0-50 nM).

[13] = patients with event / 15 patients dosed, all dose levels

MM-141: polyvalent bispecific antibody P4-G1-M1.3, anti-IGF-1R and anti-ErbB3; heavy chain SEQ ID NO: 3, light chain SEQ ID NO: 4
gemcitabine-induced receptor (IGF-1R, ErbB3) up-regulation [1]: reversed the receptor up-regulation | IGF-1R and ErbB3 receptor ubiquitination [2]: induction of ubiquitination; also recorded: enhanced receptor ubiquitination | resistance to cytotoxic effect of gemcitabine and paclitaxel caused by combination of IGF-1 and HRG [3]: resistance was reversed | tumor growth after development of resistance to gemcitabine ([4]; MM-141 30 mpk i.p. q3d added to the gemcitabine regimen on day 41): decreased tumor growth | activity of gemcitabine in the combination arm ([4]; MM-141 30 mpk i.p. q3d co-administered with gemcitabine 150 mpk i.p. q6d): increased the activity of gemcitabine | therapeutic synergy with gemcitabine ([4]; MM-141 30 mpk i.p. q3d with gemcitabine 150 mpk i.p. q6d): therapeutic synergy | dose-limiting toxicities ([5]; monotherapy 6, 12, 20 mg/kg q7d or 40 mg/kg q14d, 15 patients): No dose-limiting toxicities were observed; also recorded: No DLTs were observed | disease stabilization ([5]; patients with Ewing's Sarcoma (1) and parotid gland carcinoma (1)): Disease stabilization was observed | adverse events reported with a frequency>15%: abdominal pain [5, 13]: 4/15 | adverse events reported with a frequency>15%: anemia [5, 13]: 3/15 | adverse events reported with a frequency>15%: diarrhea [5, 13]: 3/15 | adverse events reported with a frequency>15%: dyspnea [5, 13]: 4/15 | adverse events reported with a frequency>15%: fatigue [5, 13]: 4/15 | adverse events reported with a frequency>15%: increased AP [5, 13]: 4/15 | adverse events reported with a frequency>15%: increased AST [5, 13]: 3/15 | adverse events reported with a frequency>15%: nausea [5, 13]: 6/15 | adverse events reported with a frequency>15%: rash [5, 13]: 3/15 | adverse events reported with a frequency>15%: vomiting [5, 13]: 7/15 | IGF-1 and/or HRG induced upregulation in AKT and ERK survival signaling [6]: could be abrogated | IGF-1 and HRG growth-factor-induced proliferation [7]: blocks | pAKT upregulation induced by the MEK inhibitor ([8]; MM-141 1000 nM with GSK-1120212 250 nM): decreases the pAKT upregulation | pAKT (Serine 473) level ([8]; single agent, GSK-1120212 250 nM or MM-141 1000 nM): down-regulates the basal level of pAKT | proliferation compared to cells incubated with ligands alone ([9]; MM-141 1000 nM in addition to HRG 10 nM and IGF-1 50 nM, with gemcitabine or paclitaxel): reduced proliferation | sensitivity to gemcitabine in cells stimulated with HRG and IGF-1 ([9]; gemcitabine 2 nM, HRG 10 nM, IGF-1 50 nM, MM-141 1000 nM, 96 hours): restores sensitivity | sensitivity to paclitaxel in cells stimulated with HRG and IGF-1 ([9]; paclitaxel 6 nM, HRG 10 nM, IGF-1 50 nM, MM-141 1000 nM, 96 hours): restores sensitivity | sorafenib-induced up-regulation of ErbB3 and pAKT [10]: overcome | pAKT (AKT activation) induced by the combination of HRG and IGF-1 [11]: blocks AKT activation; also recorded: greatly reduced amount of pAKT | resistance to cytotoxic effect of paclitaxel caused by IGF-1 or heregulin [12]: resistance was reversed

Source: patent US20170096492A1, “DOSAGE AND ADMINISTRATION OF ANTI-IGF-1R, ANTI-ErbB3 BISPECIFIC ANTIBODIES, USES THEREOF AND METHODS OF TREATMENT [sequence]” (Merrimack Pharmaceuticals, Inc., priority 2014, published 2017)
